Laboratory results taken from PubChem BioAssay (NCI).
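Five concentrations, 48 hours, 96-well plates. At the TGI there is no net growth.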

Tests used:
Assay in all cases: inhibition of tumour cell growth, NCI panel, 48 h
[1] = system: 786-0 renal
[2] = system: A498 renal
[3] = system: A549 NSCLC
[4] = system: ACHN renal
[5] = system: BT-549 breast
[6] = system: CAKI-1 renal
[7] = system: CCRF-CEM leukemia
[8] = system: COLO 205 colon
[9] = system: DU-145 prostate
[10] = system: EKVX NSCLC
[11] = system: HCT-116 colon
[12] = system: HCT-15 colon
[13] = system: HL-60(TB) leukemia
[14] = system: HOP-62 NSCLC
[15] = system: HOP-92 NSCLC
[16] = system: HS 578T breast
[17] = system: HT29 colon
[18] = system: IGROV1 ovarian
[19] = system: K-562 leukemia
[20] = system: KM12 colon
[21] = system: LOX IMVI melanoma
[22] = system: M14 melanoma
[23] = system: MALME-3M melanoma
[24] = system: MCF7 breast
[25] = system: MDA-MB-231 breast
[26] = system: MDA-MB-435
[27] = system: MDA-N
[28] = system: MOLT-4 leukemia
[29] = system: NCI-H226 lung
[30] = system: NCI-H23 lung
[31] = system: NCI-H460 lung
[32] = system: NCI-H522 lung
[33] = system: NCI/ADR-RES ovarian
[34] = system: OVCAR-3 ovarian
[35] = system: OVCAR-4 ovarian
[36] = system: OVCAR-5 ovarian
[37] = system: OVCAR-8 ovarian
[38] = system: PC-3 prostate
[39] = system: RPMI-8226 leukemia
[40] = system: RXF 393 renal
[41] = system: SF-268 CNS
[42] = system: SF-295 CNS
[43] = system: SF-539 CNS
[44] = system: SK-MEL-2 melanoma
[45] = system: SK-MEL-28 melanoma
[46] = system: SK-MEL-5 melanoma
[47] = system: SK-OV-3 ovarian
[48] = system: SN12C renal
[49] = system: SNB-19 CNS
[50] = system: SNB-75 CNS
[51] = system: SR leukemia
[52] = system: SW-620 colon
[53] = system: T-47D breast
[54] = system: TK-10 renal
[55] = system: U251 CNS
[56] = system: UACC-257 melanoma
[57] = system: UACC-62 melanoma
[58] = system: UO-31 renal

`COC(=O)C1C(OS(=O)(=O)O)CCC2CN3CCc4c([nH]c5ccccc45)C3CC21` (centres undefined) was tested, and the TGI [1] was greater than 100 µM, the TGI [2] was greater than 100 µM and the TGI [3] was greater than 100 µM. The TGI [4] was greater than 100 µM, the TGI [5] was greater than 100 µM and the TGI [6] was greater than 100 µM. The TGI [7] was greater than 100 µM, the TGI [8] was greater than 100 µM and the TGI [9] was greater than 100 µM. For the same compound, the TGI [10] was greater than 100 µM, the TGI [11] was greater than 100 µM and the TGI [12] was greater than 100 µM. For the same compound, the TGI [13] was greater than 100 µM, the TGI [14] was greater than 100 µM and the TGI [15] was greater than 100 µM. The TGI [16] was greater than 100 µM, the TGI [17] was greater than 100 µM and the TGI [18] was greater than 100 µM. It also gave a TGI [19] greater than 100 µM, a TGI [20] greater than 100 µM and a TGI [21] greater than 100 µM. For the same compound, the TGI [22] was greater than 100 µM, the TGI [23] was greater than 100 µM and the TGI [24] was greater than 100 µM. For the same compound, the TGI [25] was greater than 100 µM, the TGI [26] was greater than 100 µM and the TGI [27] was greater than 100 µM. The TGI [28] was greater than 100 µM, the TGI [29] was greater than 100 µM and the TGI [30] was greater than 100 µM. For the same compound, the TGI [31] was greater than 100 µM, the TGI [32] was greater than 100 µM and the TGI [33] was greater than 100 µM. For the same compound, the TGI [34] was greater than 100 µM, the TGI [35] was greater than 100 µM and the TGI [36] was greater than 100 µM. For the same compound, the TGI [37] was greater than 100 µM, the TGI [38] was greater than 100 µM and the TGI [39] was greater than 100 µM. The TGI [40] was greater than 100 µM, the TGI [41] was greater than 100 µM and the TGI [42] was greater than 100 µM. It also gave a TGI [43] greater than 100 µM, a TGI [44] greater than 100 µM and a TGI [45] greater than 100 µM. For the same compound, the TGI [46] was greater than 100 µM, the TGI [47] was greater than 100 µM and the TGI [48] was greater than 100 µM. It also gave a TGI [49] greater than 100 µM, a TGI [50] greater than 100 µM and a TGI [51] greater than 100 µM. It also gave a TGI [52] greater than 100 µM, a TGI [53] greater than 100 µM and a TGI [54] greater than 100 µM. For the same compound, the TGI [55] was greater than 100 µM, the TGI [56] was greater than 100 µM and the TGI [57] was greater than 100 µM. It also gave a TGI [58] greater than 100 µM.

Compound `COc1cc2c(c(O)c1OC)C(=O)C1CCC(=O)N1C2c1cccc2ccccc12` (centres undefined) has a TGI [1] greater than 100 µM, a TGI [2] greater than 100 µM and a TGI [3] greater than 100 µM. For the same compound, the TGI [4] was greater than 100 µM, the TGI [5] was greater than 100 µM and the TGI [6] was greater than 100 µM. It also gave a TGI [7] of 77 µM, a TGI [8] of 32.8 µM and a TGI [9] greater than 100 µM. For the same compound, the TGI [10] was greater than 100 µM, the TGI [11] was greater than 100 µM and the TGI [12] was greater than 100 µM. It also gave a TGI [13] of 63.9 µM, a TGI [14] greater than 100 µM and a TGI [15] of 89.5 µM. It also gave a TGI [16] greater than 100 µM, a TGI [17] greater than 100 µM and a TGI [18] greater than 100 µM. It also gave a TGI [19] of 59.2 µM, a TGI [20] greater than 100 µM and a TGI [22] greater than 100 µM. It also gave a TGI [23] greater than 100 µM, a TGI [24] greater than 100 µM and a TGI [25] greater than 100 µM. The TGI [26] was greater than 100 µM, the TGI [27] was greater than 100 µM and the TGI [28] was 89.6 µM. It also gave a TGI [29] greater than 100 µM, a TGI [30] greater than 100 µM and a TGI [31] greater than 100 µM. The TGI [32] was greater than 100 µM, the TGI [33] was greater than 100 µM and the TGI [34] was greater than 100 µM. The TGI [35] was greater than 100 µM, the TGI [36] was greater than 100 µM and the TGI [37] was greater than 100 µM. For the same compound, the TGI [38] was greater than 100 µM, the TGI [39] was 81.2 µM and the TGI [40] was greater than 100 µM. It also gave a TGI [41] greater than 100 µM, a TGI [42] greater than 100 µM and a TGI [43] greater than 100 µM. The TGI [44] was greater than 100 µM, the TGI [45] was greater than 100 µM and the TGI [46] was greater than 100 µM. The TGI [47] was greater than 100 µM, the TGI [48] was greater than 100 µM and the TGI [49] was greater than 100 µM. The TGI [50] was greater than 100 µM, the TGI [51] was greater than 100 µM and the TGI [52] was greater than 100 µM. It also gave a TGI [53] greater than 100 µM, a TGI [55] greater than 100 µM and a TGI [56] greater than 100 µM. The TGI [57] was greater than 100 µM and the TGI [58] was greater than 100 µM.
